Measured values published in PubChem BioAssay (NCI).
Values joined by “and” are separate entries in the source; they are usually repeats but may differ in a detail not shown here. Equal entries are not always repeated.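 Where inhibition never reached the appropriate level, the endpoint shown equals the highest concentration tested. Otherwise, values were interpolated linearly from a five-concentration, 48-hour dose response in 96-well plates. GI50 marks 50% less growth. TGI marks complete inhibition of growth.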

How the values were obtained:
Assay in all cases: NCI-60 cell line screen, 48 h
A498 renal = tested on: A498 renal
EKVX NSCLC = tested on: EKVX NSCLC
NCI-H226 lung = tested on: NCI-H226 lung
NCI-H460 lung = tested on: NCI-H460 lung
RPMI-8226 leukemia = tested on: RPMI-8226 leukemia
SN12C renal = tested on: SN12C renal
UACC-62 melanoma = tested on: UACC-62 melanoma

| Compound | GI50 (A498 renal) | TGI (A498 renal) | GI50 (EKVX NSCLC) | TGI (EKVX NSCLC) | GI50 (NCI-H226 lung) | TGI (NCI-H226 lung) | GI50 (NCI-H460 lung) | TGI (NCI-H460 lung) | GI50 (RPMI-8226 leukemia) | TGI (RPMI-8226 leukemia) | GI50 (SN12C renal) | TGI (SN12C renal) | GI50 (UACC-62 melanoma) | TGI (UACC-62 melanoma) |
| --- | --- | --- | --- | --- | --- | --- | --- | --- | --- | --- | --- | --- | --- | --- |
| N#C/C(=C\c1c(-c2ccccc2)[nH]c2ccccc12)C(=O)c1ccccc1 | 15.3 µM | > 100 µM | 9.97 µM | > 100 µM | 6.83 µM | > 100 µM | 4.52 µM | > 100 µM | 2.43 µM | 7.98 µM | 5.66 µM | > 100 µM | 3.6 µM | > 100 µM |
| C=C1C(=O)OC2/C=C(\CO)CC/C=C(\CO)CC(OC(=O)C(C)C)C12 (configuration not stated) | – | 59.2 µM | – | 38.8 µM | – | 34.2 µM | – | 38.6 µM | – | 25.5 µM | – | 26.1 µM | – | 29.4 µM |
| c1ccc(B2OCC(C3OB(c4ccccc4)OC4COB(c5ccccc5)OC43)O2)cc1 (configuration not stated) | – | > 100 µM | – | > 100 µM | – | – | – | > 100 µM | – | > 100 µM | – | > 100 µM | – | > 100 µM |
| Clc1cc(-c2ccccc2)nc2ccccc12 | – | 94.3 µM | – | > 100 µM | – | 92.9 µM | – | > 100 µM | – | 59 µM | – | > 100 µM | – | > 100 µM |
| CC1(C)CC([P+](c2ccccc2)(c2ccccc2)c2ccccc2)=NN1 | 4.24 µM | 35.7 µM | 2.42 µM | > 100 µM | 5.53 µM | 84.5 µM | 6.09 µM | > 100 µM | 4.41 µM | > 100 µM | 4.39 µM | > 100 µM | 3.17 µM | > 100 µM |
| COc1ccc(-c2ccc(-c3ccc(C(=N)N)cn3)o2)cc1Cl | 2.05 µM | 5.57 µM | 2 µM | 4.26 µM | 2.89 µM | 13.3 µM | 1.89 µM | 3.63 µM | – | – | 1.77 µM | 3.45 µM | – | – |
| CCN(CC)CCn1c2ccc(OC)cc2c2sc3cc(OC)ccc3c(=O)c21 | 1.12 µM | 2.35 µM | 1.6 µM | 3.36 µM | 2.46 µM | 7.49 µM | 1.08 µM | 2.52 µM | – | – | 2.03 µM | 8.75 µM | 1.8 µM | 3.47 µM |
| CC(C)C[C@H](NC(=O)CCn1ccc2ncccc2c1=O)B(O)O | 2.66 µM | 21.3 µM | – | – | 2.22 µM | 6.13 µM | 31.9 µM | > 100 µM | 2.82 µM | > 27 µM | 18.9 µM | > 100 µM | 5.93 µM | 61.7 µM |
| Cc1ccc(Nc2cc(C)nc(NCCCNc3ccnc4cc(Cl)ccc34)n2)cc1 | 1.06 µM | 2.4 µM | – | – | 2.14 µM | 5.91 µM | 1.57 µM | 3.23 µM | 1.5 µM | 3.95 µM | 1.49 µM | 3.11 µM | 1.68 µM | 3.19 µM |
| FC(F)(F)c1cccc2c(SCCc3n[nH]c(=S)o3)ccnc12 | – | – | 27.6 µM | > 100 µM | 37.1 µM | > 100 µM | 67.4 µM | > 100 µM | 30.3 µM | > 100 µM | 51.4 µM | > 100 µM | 16.6 µM | 34 µM |
| CN1C[C@@H]2Cn3c(c(C4=C(c5cn(C)c6ccccc56)C(=O)NC4=O)c4ccccc43)C[C@H]2C1 | 4.76 µM and 4.45 µM | 8.59 µM and 8.23 µM | – | – | 4.53 µM and 4.06 µM | 15 µM and 10.9 µM | 4.61 µM and 4.35 µM | 8.9 µM | 5.56 µM and 4.7 µM | 11.9 µM and 10.3 µM | 3.45 µM and 3.3 µM | 8.8 µM and 8.65 µM | 3.89 µM and 3.61 µM | 7.64 µM and 7.19 µM |
| COC(=O)[C@H](C)NC(=O)[C@@H](OC)[C@@H]1Cc2cc3cc(OC4CC(OC5CC(O)C(O)C(C)O5)C(O)C(C)O4)c(C)c(O)c3c(O)c2C(=O)[C@H]1OC1CC(OC2CC(OC3CC(C)(O)C(O)C(C)O3)C(O)C(C)O2)C(O)C(C)O1 (some centres not stated) | – | – | 0.174 µM | 35.5 µM | 0.106 µM | 0.495 µM | 0.0344 µM | > 50 µM | 0.1 µM | 1.89 µM | 0.101 µM | > 50 µM | 0.0417 µM | 0.171 µM |
| O=C(CCSc1ccnc2c(C(F)(F)F)cccc12)N/N=C/c1cc(Cl)c(Cl)cc1Cl | – | – | 38.1 µM | > 100 µM | 17.6 µM | 39.3 µM | 25.4 µM | 54.5 µM | 19 µM | 52.7 µM | 18 µM | 34.1 µM | 15.4 µM | 39.7 µM |
| CCOC(=O)C(C(=O)OCC)C(=O)c1ccccc1C(=O)c1ccccc1 | – | > 100 µM | – | 96.7 µM | – | > 100 µM | – | > 100 µM | – | – | – | > 100 µM | – | > 100 µM |
| C=C(CNC(=O)c1ccccc1)c1ccc(C(=O)Nc2ccccc2N)cc1 | 1.37 µM | 7.58 µM | > 100 µM | > 100 µM | 1.39 µM | 7.41 µM | 8.02 µM | > 100 µM | – | – | 1.09 µM | 8.93 µM | 1.75 µM | 11.4 µM |
| COc1cc(C2CC(=O)Nc3c2ccc2ccccc32)cc(Br)c1OC (configuration not stated) | 0.272 µM | 2.29 µM | – | – | 6.4 µM | > 100 µM | 0.368 µM | > 20.2 µM | 0.562 µM | 24.1 µM | 1.36 µM | > 43.6 µM | 0.54 µM | – |
| Fc1ccc2c(c1)C1=C(CO2)C(c2ccc(Cl)cc2)NC(=S)N1 (configuration not stated) | 17.4 µM | 73.7 µM | 37.4 µM | > 100 µM | – | – | 21.9 µM | 61.8 µM | 11.1 µM | 34.5 µM | 17.7 µM | 40.2 µM | 18.4 µM | 63.7 µM |
| O=S(=O)(NC1=NCCN1C(=S)SN1CCn2c1nsc2=S)c1ccccc1Cl | 24.6 µM | 59 µM | 36.6 µM | > 100 µM | 35.7 µM | > 100 µM | – | – | 3.5 µM | 26.2 µM | 31.6 µM | > 100 µM | 19.3 µM | 44.1 µM |
| COc1c(Cl)ccc2c(-c3nc4cc(Cl)c(F)cc4s3)cc(=O)oc12 | 17.6 µM | 36 µM | – | – | 11.7 µM | > 69.3 µM | 33.2 µM | > 100 µM | 3.58 µM | > 38.2 µM | 23.2 µM | > 90.3 µM | 16.5 µM | 53.7 µM |
